Series [1] concerns NMDAR. To be noted: by blocking adenosine receptor; cited from earlier work.
In series [2] the target is NMDAR glycine site (Homo sapiens, UniProt Q05586). The series is described as follows: Modulation of the NMDAR glycine site in embodiments. To be noted: in embodiments of the invention.
Series [3] is described as follows: Tinnitus side effect of CMF modulator treatment. In kind it is in vivo, human.
Series [4] concerns hair regrowth. To be noted: topical petroleum jelly composition, up to 10% by weight, shaved skin of mice; cited from earlier work.
Series [5] deals with NMDAR glutamate site. The settings on record: laboratory studies; cited from earlier work.

`Cn1c(=O)c2c(ncn2C)n(C)c1=O` [Caffeine]: the NMDAR stimulation entry in series [1] is on record as “stimulates NMDAR at low micromolar concentrations”.

In the case of `NCCS(=O)(=O)O` [Taurine], the “modulation of the NMDAR glycine site” value in series [2] is recorded as “stronger negative modulation effects”.

As to `N[C@@H](CCC(=O)O)C(=O)O` [glutamic acid], the tinnitus entry in series [3] (dosed sublingually or topically) is given as “issues related to tinnitus have been observed”. In addition, in series [4], the “rate of hair regrowth” value is reported as “increases the rate of hair regrowth”.

For the molecule `O=C1CC[C@@H](C(=O)O)N1` [pyroglutamic acid], the tinnitus entry in series [3] (dosed orally) is “issues related to tinnitus have been observed”. Also, in series [5], the “modulation of the NMDAR glutamate site” value is “negative modulator”.
